Reference: patent publication US20070066674A1, “Tricyclic imidzopyridines for use as gastric secretion inhibitors” (Altana Pharma AG, priority 2003, published 2007)

System: pentagastrin-stimulated acid secretion of the perfused rat stomach
Experiment: Secretion-inhibiting action on the perfused rat stomach
Type: in vivo
Details: anesthetized CD rat, intraduodenal administration
Source text: In Table A which follows, the influence of the compounds of the formula 1 according to the invention and of their optical antipodes of the formula 2 on the pentagastrin-stimulated acid secretion of the perfused rat stomach after intraduodenal administration in vivo is shown.
The abdomen of anesthetized rats (CD rat, female, 200-250 g; 1.5 g/kg i.m. urethane) was opened after tracheotomy by a median upper abdominal incision and a PVC catheter was fixed transorally in the esophagus and another via the pylorus such that the ends of the tubes just projected into the gastric lumen. The catheter leading from the pylorus led outward into the right abdominal wall through a side opening.
After thorough rinsing (about 50-100 ml), warm (37° C.) physiological NaCl solution was continuously passed through the stomach (0.5 ml/min, pH 6.8-6.9; Braun-Unita I). The pH (pH meter 632, glass electrode EA 147; φ=5 mm, Metrohm) and, by titration with a freshly prepared 0.01 N NaOH solution to pH 7 (Dosimat 665 Metrohm), the secreted HCl were determined in the effluent in each case collected at an interval of 15 minutes.
The gastric secretion was stimulated by continuous infusion of […] (=1.65 ml/h) of i.v. pentagastrin (left femoral vein) about 30 min after the end of the operation (i.e. after determination of 2 preliminary fractions). The substances to be tested were administered intraduodenally in a 2.5 ml/kg liquid volume 60 min after the start of the continuous pentagastrin infusion. The body temperature of the animals was kept at a constant 37.8-38° C. by infrared irradiation and heat pads (automatic, stepless control by means of a rectal temperature sensor).

SMILES | Inhibition of acid secretion (%) (dose 3 μmol/kg i.d.) | Inhibition of acid secretion (%) (dose 1 μmol/kg i.d.) | also measured
Cc1nc2c3c(c(C(=O)N(C)C)cn2c1C)CC[C@H](c1ccccc1)O3.O=C(O)C(O)C(O)C(=O)O [A, (9R)2,3-Dimethyl-9-phenyl-7H-8,9-dihydro-pyrano[2,3-c]-imidazo[1,2-a]pyridine-6-carboxylic acid dimethylamide (S,S)-tartrate] | <40% | – | –
Cc1nc2c3c(c(C(=O)N(C)C)cn2c1C)CC[C@H](c1ccccc1)O3 [B, (9R)-2,3-Dimethyl-9-phenyl-7H-8,9-dihydro-pyrano[2,3-c]-imidazo[1,2-a]pyridine-6-carboxylic acid dimethylamide] | <40% | – | –
Cc1nc2c3c(c(C(=O)N(C)C)cn2c1CO)CC[C@H](c1ccccc1)O3 [C, (9R)-3-Hydroxymethyl-2-methyl-9-phenyl-7H-8,9-dihydro-pyrano[2,3c]-imidazo[1,2-a]pyridine-6-carboxylic acid dimethylamide] | – | – | Inhibition of acid secretion (%) (dose 6 μmol/kg i.d.): <30%
Cc1nc2c3c(c(C(=O)N(C)C)cn2c1Br)CC[C@H](c1ccccc1)O3 [D, (9R)-3-Bromo-2-methyl-9-phenyl-7H-8,9-dihydro-pyrano[2,3-c]-imidazo[1,2-a]pyridine-6-carboxylic acid dimethylamide] | <40% | – | –
CCc1c(C)nc2c3c(c(C(=O)N(C)C)cn12)CC[C@H](c1ccccc1)O3 [E, (9R)-3-Ethyl-2-methyl-9-phenyl-7H-8,9-dihydro-pyrano[2,3-c]-imidazo[1,2-a]pyridine-6-carboxylic acid dimethylamide] | <30% | – | –
Cc1nc2c3c(c(C(=O)N(C)C)cn2c1C)CC[C@@H](c1ccccc1)O3.O=C(O)C(O)C(O)C(=O)O [Example 1, (9S)-2,3-Dimethyl-9-phenyl-7H8,9dihydro-pyrano[2,3-c]-imidazo[1,2-a]pyridine-6-carboxylic acid dimethylamide (R,R)-tartrate] | – | 100% | –
Cc1nc2c3c(c(C(=O)N(C)C)cn2c1C)CC[C@@H](c1ccccc1)O3 [Example 2, (9S)-2,3-Dimethyl-9-phenyl-7H-8,9-dihydro-pyrano[2,3c]-imidazo[1,2-a]pyridine-6-carboxylic acid dimethylamide] | – | 100% | –
Cc1nc2c3c(c(C(=O)N(C)C)cn2c1CO)CC[C@@H](c1ccccc1)O3 [Example 3, (9S)-3-Hydroxymethyl-2-methyl-9-phenyl-7H-8,9-dihydro-pyrano[2,3-c]-imidazo[1,2-a]pyridine-6-carboxylic acid dimethylamide] | – | – | Inhibition of acid secretion (%) (dose 6 μmol/kg i.d.): >50%
Cc1nc2c3c(c(C(=O)N(C)C)cn2c1Br)CC[C@@H](c1ccccc1)O3 [Example 4, (9S)-3Bromo-2-methyl-9-phenyl-7H-8,9-dihydro-pyrano[2,3-c]-imidazo[1,2-a]pyridine-6-carboxylic acid dimethylamide] | >60% | – | –
CCc1c(C)nc2c3c(c(C(=O)N(C)C)cn12)CC[C@@H](c1ccccc1)O3 [Example 5, (9S)-3-Ethyl-2-methyl-9-phenyl-7H-8,9-dihydro-pyrano[2,3c]-imidazo[1,2-a]pyridine-6-carboxylic acid dimethylamide] | >70% | – | –
Cc1nc2c3c(c(C(=O)N4CCCC4)cn2c1C)CC[C@@H](c1ccccc1)O3 [Example 6, (9S)-(2,3-Dimethyl-9-phenyl-7H-8,9-dihydro-pyrano[2,3c]-imidazo[1,2-a]pyridin-6-yl)-pyrrolidin-1-yl methanone] | 100% | – | –
CNC(=O)c1cn2c(C)c(C)nc2c2c1CC[C@@H](c1ccccc1)O2 [Example 7, (9S)-2,3-Dimethyl-9-phenyl-7H-8,9-dihydro-pyrano[2,3-c]-imidazo[1,2-a]pyridine-6-carboxylic acid methylamide] | – | 100% | –
Cc1nc2c3c(c(C(N)=O)cn2c1C)CC[C@@H](c1ccccc1)O3 [Example 8, (9S)-2,3-Dimethyl-9-phenyl-7H-8,9-dihydro-pyrano[2,3c]-imidazo[1,2-a]pyridine-6-carboxylic acid amide] | – | – | Inhibition of acid secretion (%) (dose 2 μmol/kg i.d.): 100%
Cc1ccccc1[C@@H]1CCc2c(C(=O)N(C)C)cn3c(C)c(C)nc3c2O1 [Example 9, (9S)-2,3-Dimethyl-9-(2-methylphenyl)-7H-8,9-dihydro-pyrano[2,3-c]-imidazo[1,2-a]pyridine-6-carboxylic acid dimethylamide] | – | 100% | –
Cc1nc2c3c(c(C(=O)N(C)C)cn2c1C)CC[C@@H](c1ccccc1F)O3 [Example 10, (9S)-9-(2-Fluorophenyl)-2,3-dimethyl-7H-8,9-dihydro-pyrano[2,3-c]-imidazo[1,2-a]pyridine-6-carboxylic acid dimethylamide] | – | 100% | –
Cc1nc2c3c(c(C(=O)N(C)C)cn2c1C)CC[C@@H](c1ccc(F)cc1)O3 [Example 11, (9S)-9-(4-Fluorophenyl)-2,3-dimethyl-7H-8,9-dihydro-pyrano[2,3-c]-imidazo[1,2-a]pyridine-6-carboxylic acid dimethylamide] | – | 100% | –
Cc1nc2c3c(c(C(=O)N(C)C)cn2c1C)CC[C@@H](c1cccs1)O3 [Example 12, (9S)-2,3-Dimethyl-9-thiophen-2-yl-7H-8,9-dihydro-pyrano[2,3-c]-imidazo[1,2-a]pyridine-6-carboxylic acid dimethylamide] | 100% | – | –
COCc1cn2c(C)c(C)nc2c2c1CC[C@@H](c1ccccc1)O2 [Example 13, (9S)-6-Methoxymethyl-2,3-dimethyl-9-phenyl-7H-8,9-dihydro-pyrano[2,3-c]-imidazo[1,2-a]pyridine] | 100% | – | –
Cc1nc2c3c(c(C(=O)N4CCCC4)cn2c1C)CC[C@H](c1ccccc1)O3 [F, (9R)-(2,3-Dimethyl-9-phenyl-7H-8,9-dihydro-pyrano[2,3-c]-imidazo[1,2-a]pyridin-6-yl)-pyrrolidin-1-yl methanone] | <40% | – | –
CNC(=O)c1cn2c(C)c(C)nc2c2c1CC[C@H](c1ccccc1)O2 [G, (9R)-2,3-Dimethyl-9-phenyl-7H-8,9-dihydro-pyrano[2,3-c]-imidazo[1,2-a]pyridine-6-carboxylic acid methylamide] | <40% | – | –
Cc1nc2c3c(c(C(N)=O)cn2c1C)CC[C@H](c1ccccc1)O3 [H, (9R)-2,3-Dimethyl-9-phenyl-7H-8,9-dihydro-pyrano[2,3-c]-imidazo[1,2-a]pyridine-6-carboxylic acid amide] | <40% | – | –
Cc1ccccc1[C@H]1CCc2c(C(=O)N(C)C)cn3c(C)c(C)nc3c2O1 [I, (9R)-2,3-Dimethyl-9-(2-methylphenyl)-7H-8,9-dihydro-pyrano[2,3-c]-Imidazo[1,2-a]pyridine-6-carboxylic acid dimethylamide] | – | <50% | –
Cc1nc2c3c(c(C(=O)N(C)C)cn2c1C)CC[C@H](c1ccccc1F)O3 [J, (9R)-9-(2-Fluorophenyl)-2,3-dimethyl-7H-8,9-dihydro-pyrano[2,3c]-imidazo[1,2-a]pyridine-6-carboxylic acid dimethylamide] | <50% | – | –
Cc1nc2c3c(c(C(=O)N(C)C)cn2c1C)CC[C@H](c1ccc(F)cc1)O3 [K, (9R)-9-(4-Fluorophenyl)-2,3dimethyl-7H-8,9-dihydro-pyrano[2,3-c]-imidazo[1,2-a]pyridine-6-carboxylic acid dimethylamide] | – | <40% | –
